{"source": "ChEMBL document CHEMBL1201862", "about": "“PubChem BioAssay data set” (2004)", "key": {"[1]": {"assay": "reduction of Shn3 3'UTR-driven luciferase in osteoblasts – cell-based, Clone20 osteoblasts, firefly luciferase, cherry-picked, dose response (AID 624132);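 note: firefly luciferase luminescence from reporter carrying the Shn3 3'UTR in osteoblasts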", "type": "functional"}, "[2]": {"assay": "Shn3 3'UTR reporter signal decrease – cell-based, Clone20 osteoblasts, firefly luciferase, cherry-pick, set 2, Schnurri-3 inhibitor project, dose response (AID 720490);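 note: actives lower the luminescence signal as inhibitors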", "type": "functional"}, "[3]": {"assay": "non-specific 3'UTR reporter inhibition in Clone20-Shn3RL – cell-based, Renilla luciferase, cherry-picked, counter-screen for Shn3 inhibitor project, dose response (AID 624133)", "type": "functional"}, "Vero": {"tested_on": "Vero", "assay": "cells", "type": "functional", "settings": "Chlorocebus sabaeus"}, "[4]": {"assay": "EF1alpha-driven Renilla reporter with control 3'UTR suppression – Clone20-Shn3RL cells, dual-Glo, cherry-pick, set 2, counter-screen for Shn3 3'UTR targeting project, dose response (AID 720724)", "type": "functional, cell-based", "settings": "Dual-Go Shn3RL"}, "Protein skinhead-1": {"target": "T1, Protein skinhead-1 (Caenorhabditis elegans, UniProt P34707)", "T1 sequence (P34707 whole entry)": "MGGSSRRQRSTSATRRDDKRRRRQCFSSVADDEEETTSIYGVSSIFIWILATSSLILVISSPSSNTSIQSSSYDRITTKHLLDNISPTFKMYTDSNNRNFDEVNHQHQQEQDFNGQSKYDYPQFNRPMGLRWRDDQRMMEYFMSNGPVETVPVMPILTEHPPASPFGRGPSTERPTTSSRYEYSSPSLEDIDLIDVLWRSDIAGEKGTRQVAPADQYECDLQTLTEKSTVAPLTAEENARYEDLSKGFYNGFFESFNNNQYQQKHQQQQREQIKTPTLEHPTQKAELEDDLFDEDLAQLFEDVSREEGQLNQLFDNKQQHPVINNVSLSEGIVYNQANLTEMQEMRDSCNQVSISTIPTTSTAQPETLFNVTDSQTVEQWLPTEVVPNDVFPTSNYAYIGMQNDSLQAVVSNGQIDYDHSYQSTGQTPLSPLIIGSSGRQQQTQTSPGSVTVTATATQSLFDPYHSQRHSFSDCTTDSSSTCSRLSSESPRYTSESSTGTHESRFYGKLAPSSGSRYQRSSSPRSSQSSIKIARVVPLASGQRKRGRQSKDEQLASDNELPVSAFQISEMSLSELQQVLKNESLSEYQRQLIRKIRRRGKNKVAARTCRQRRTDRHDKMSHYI", "type": "functional"}, "[5]": {"assay": "African trypanosome bloodstream form growth inhibition – STIB900 strain, plate reader, cherry pick, dose response (AID 651893)", "type": "functional, cell-based, Trypanosoma brucei rhodesiense", "settings": "Trypanosoma brucei"}, "[6]": {"assay": "L6 myocyte viability loss – cell-based, plate reader, cherry-pick, cytotoxicity control, dose response (AID 651896)", "type": "functional"}, "[7]": {"assay": "Inhibition of T. cruzi Tulahuen strain amastigotes in L-6 muscle cells Measured in Cell-Based and Microorganism Combination System Using Plate Reader - 2138-03_Inhibitor_Dose_CherryPick_Activity.", "type": "functional", "settings": "Rattus norvegicus, L6"}, "[8]": {"assay": "mouse fibroblast viability loss – cell-based, cherry-pick samples, set 2, cytotoxicity control for T. cruzi growth inhibitor project, dose response (AID 651817)", "type": "functional", "settings": "NIH3T3"}, "[9]": {"assay": "Inhibition of Plasmodium falciparum NF54 Measured in Cell-Based System Using Plate Reader - 2138-11_Inhibitor_Dose_CherryPick_Activity.", "type": "functional"}, "[10]": {"assay": "T. cruzi growth inhibition in host cells, dose response, cell-based, plate reader, dry powder, set 2 (AID 652275)", "type": "functional"}, "[11]": {"assay": "Trypanosoma cruzi replication inhibitors in host cells – cell-based, plate reader, dry powder samples, dose response (AID 651845)", "type": "functional"}, "[12]": {"assay": "intracellular Trypanosoma cruzi inhibitors in host cells – cell-based, plate reader, cherry-pick samples, set 3, dose response (AID 651818);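 note: compounds incubated with infected cells for about four days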", "type": "functional"}, "[13]": {"assay": "anti-trypanosomal activity in BESM host cells – imaging, CA-I/72 strain, bovine embryo skeletal muscle, dry powder, dose response (AID 651885)", "type": "functional, cell-based"}, "[14]": {"assay": "antileishmanial activity on axenic amastigotes – plate reader, cherry pick, dose response (AID 651891)", "type": "functional, cell-based", "settings": "Leishmania donovani"}, "[15]": {"target": "NAD-dependent protein deacylase sirtuin-5, mitochondrial (Homo sapiens, UniProt Q9NXA8)", "sequence (Q9NXA8 whole entry)": "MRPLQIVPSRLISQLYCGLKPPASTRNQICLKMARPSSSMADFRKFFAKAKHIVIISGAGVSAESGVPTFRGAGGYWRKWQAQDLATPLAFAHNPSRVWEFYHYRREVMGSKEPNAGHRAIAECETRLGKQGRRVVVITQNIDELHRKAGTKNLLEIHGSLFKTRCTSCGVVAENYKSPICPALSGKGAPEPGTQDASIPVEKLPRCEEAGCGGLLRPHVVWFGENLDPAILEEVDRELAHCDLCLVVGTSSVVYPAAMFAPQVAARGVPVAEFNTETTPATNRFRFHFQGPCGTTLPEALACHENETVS", "assay": "blockers of sirtuin-5 peptide desuccinylation – biochemical, fluorescence imaging, cherry-pick, set 6, dose response (AID 720597)"}, "Fibrinogen beta chain [16]": {"target": "T2, Fibrinogen beta chain (Homo sapiens, UniProt P02675)", "T2 sequence (P02675 whole entry, the tested form may be a part)": "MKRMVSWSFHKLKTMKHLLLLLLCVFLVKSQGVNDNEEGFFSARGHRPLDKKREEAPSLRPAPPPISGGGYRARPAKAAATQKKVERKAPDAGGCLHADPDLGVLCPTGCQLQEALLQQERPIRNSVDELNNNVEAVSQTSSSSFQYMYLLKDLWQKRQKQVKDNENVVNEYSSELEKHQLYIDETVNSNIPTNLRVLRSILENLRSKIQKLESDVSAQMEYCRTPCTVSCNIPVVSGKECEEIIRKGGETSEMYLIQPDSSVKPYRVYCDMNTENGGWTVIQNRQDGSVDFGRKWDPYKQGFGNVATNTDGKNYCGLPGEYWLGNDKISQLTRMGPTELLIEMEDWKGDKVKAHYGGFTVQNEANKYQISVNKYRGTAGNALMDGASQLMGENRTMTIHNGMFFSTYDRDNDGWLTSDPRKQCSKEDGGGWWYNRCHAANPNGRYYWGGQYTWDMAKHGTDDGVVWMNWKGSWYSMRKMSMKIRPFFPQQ", "assay": "Fluorescence polarization-based biochemical high throughput dose response assay to identify inhibitors that disrupt the binding of a cyclic peptide (Tn7) to the fibrin proteolytic product D-Dimer and fragment E complex [DD(E )]."}, "Fibrinogen beta chain [17]": {"target": "T2, Fibrinogen beta chain", "assay": "Fluorescence polarization-based biochemical high throughput dose response assay to identify inhibitors that disrupt the binding of a cyclic peptide (Tn6) to the fibrin proteolytic product D-Dimer and fragment E complex [DD(E )]."}, "[18]": {"assay": "Late stage assay provider results from the probe development effort to identify inhibitors of the Plasmodium falciparum M18 Aspartyl Aminopeptidase (M18AAP): radiolabel-based cell-based dose response assay to identify compounds that inhibit P. falciparum growth in RBCs, Set 2..", "type": "functional"}, "[19]": {"assay": "A Cell-Based Confirmatory Screen for Compounds that Inhibit VEEV, TC-83 (5).", "type": "functional"}, "[20]": {"assay": "inhibitors of non-replicating M. tuberculosis, dose response, luciferase, dry powder (AID 651619)", "type": "functional", "settings": "Mycobacterium tuberculosis"}, "[21]": {"assay": "growth inhibition of replicating M. tuberculosis, dose response, counter-screen, dry powder, IC90 (AID 651617)", "type": "functional", "settings": "Mycobacterium tuberculosis"}, "[22]": {"assay": "inhibitors of non-replicating M. tuberculosis, dose response, luciferase, dry powder (AID 651620)", "type": "functional", "settings": "Mycobacterium tuberculosis"}, "[23]": {"target": "RNA-editing ligase 1, mitochondrial (Trypanosoma brucei brucei, UniProt P86926)", "sequence (P86926 whole entry)": "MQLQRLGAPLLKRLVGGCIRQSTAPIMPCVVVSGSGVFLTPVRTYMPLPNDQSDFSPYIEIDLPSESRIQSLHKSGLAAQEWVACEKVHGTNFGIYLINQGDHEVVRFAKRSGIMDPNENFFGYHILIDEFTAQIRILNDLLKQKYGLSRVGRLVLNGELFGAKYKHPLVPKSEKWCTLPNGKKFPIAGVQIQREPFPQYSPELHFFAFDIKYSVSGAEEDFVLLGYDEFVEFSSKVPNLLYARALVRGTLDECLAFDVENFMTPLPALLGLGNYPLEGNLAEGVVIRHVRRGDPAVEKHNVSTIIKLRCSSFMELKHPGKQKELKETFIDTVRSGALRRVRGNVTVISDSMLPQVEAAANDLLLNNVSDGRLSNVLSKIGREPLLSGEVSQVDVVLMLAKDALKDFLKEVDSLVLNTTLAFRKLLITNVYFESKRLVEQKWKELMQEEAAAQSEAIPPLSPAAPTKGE", "assay": "inhibition of trypanosome RNA editing ligase – biochemical, fluorescence, Trypanosoma brucei, dose response (AID 1117295)", "type": "functional"}, "[24]": {"target": "T3, Low molecular weight phosphotyrosine protein phosphatase (Homo sapiens, UniProt P24666)", "T3 sequence (P24666 whole entry)": "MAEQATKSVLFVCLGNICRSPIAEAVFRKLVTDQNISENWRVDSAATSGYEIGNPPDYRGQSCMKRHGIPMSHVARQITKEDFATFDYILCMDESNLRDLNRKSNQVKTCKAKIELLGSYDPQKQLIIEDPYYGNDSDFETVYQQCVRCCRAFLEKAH", "assay": "inhibition of LMPTP-A enzymatic activity – biochemical, OMFP substrate, fluorescence intensity, set 2, dose response (AID 743307)", "type": "functional"}, "[25]": {"target": "T3, Low molecular weight phosphotyrosine protein phosphatase", "assay": "inhibition of human LMPTP enzyme activity – biochemical, absorbance, pNPP substrate, LMPTP-A isoform, set 2, orthogonal assay, dose response (AID 743308)", "type": "functional"}, "cells": {"assay": "cells", "type": "functional, cell-based", "settings": "INS-1E"}, "[26]": {"assay": "rise of 4N DNA cells, HeLa – IC50, dose response (AID 1117351)", "type": "functional, cell-based"}, "[27]": {"assay": "rise of 2N DNA cells, HeLa – IC50, dose response (AID 1117349)", "type": "functional, cell-based"}, "[28]": {"assay": "IC50 of insulin release inhibition, rat insulinoma INS-1E line, 5 mM glucose, cell-based (AID 1117331)", "type": "functional"}}, "note": "Counter-ions that a name gives are not always drawn. Active and inactive are the calls of the source."}
{"smiles": "O=C(CSc1c2c(nc3ccc(Cl)cc13)CCCC2)NCc1ccco1", "values": [{"measurement": "AC50", "setting": "[1]", "result": "5.71 µM (active)"}, {"measurement": "AC50", "setting": "[2]", "result": "8.55 µM (active)"}, {"measurement": "AC50", "setting": "[3]", "result": "31.2 µM (active)"}, {"measurement": "CC50", "setting": "Vero", "result": "> 25 µM (active)"}, {"measurement": "AC50", "setting": "[4]", "result": "44.7 µM (active)"}, {"measurement": "IC50", "setting": "Protein skinhead-1", "result": "> 100 µM (inactive)"}]}
{"smiles": "C[C@@H]1CN([C@H](C)CO)C(=O)c2cccc(NC(=O)c3ccncc3)c2O[C@H]1CN(C)Cc1ccc2c(c1)OCO2", "values": [{"measurement": "IC50", "setting": "[5]", "result": "6.86 µM (inactive)"}, {"measurement": "IC50", "setting": "[6]", "result": "> 100 µM (inactive)"}, {"measurement": "IC50", "setting": "[7]", "result": "5.79 µM (inactive)"}, {"measurement": "AC50", "setting": "[8]", "result": "39 µM (inactive)"}, {"measurement": "IC50", "setting": "[9]", "result": "5.79 µM (inactive)"}, {"measurement": "AC50", "setting": "[10]", "result": "0.0187 µM (active)"}, {"measurement": "AC50", "setting": "[11]", "result": "0.311 µM (active)"}, {"measurement": "AC50", "setting": "[12]", "result": "0.08 µM (active)"}, {"measurement": "IC50", "setting": "[13]", "result": "0.049 µM (active)"}, {"measurement": "IC50", "setting": "[14]", "result": "> 100 µM (inactive)"}]}
{"smiles": "COc1ccc(S(=O)(=O)Nc2ccc3c(c2)C(=O)N([C@@H](C)CO)C[C@@H](C)[C@H](CN(C)S(=O)(=O)c2ccccc2)OCCCC[C@H](C)O3)cc1", "values": [{"measurement": "AC50", "setting": "[15]", "result": "> 30 µM (inactive)"}]}
{"smiles": "CCOC(=O)C1=Nc2cccc3c(O)ccc1c23", "values": [{"measurement": "IC50", "setting": "Fibrinogen beta chain [16]", "result": "> 9.25 µM (active)"}, {"measurement": "IC50", "setting": "Fibrinogen beta chain [17]", "result": "22.3 µM (inactive)"}]}
{"smiles": "COc1cc(Br)c(CCNc2c3ccccc3nc3ccccc23)cc1OC", "values": [{"measurement": "IC50", "setting": "[18]", "result": "0.3 µM (active)"}]}
{"smiles": "CCN1CCN(Cc2nc3ccc(I)cc3c(=O)n2-c2ccccc2)CC1", "values": [{"measurement": "IC50", "setting": "[19]", "result": "17.1 µM (active)"}]}
{"smiles": "Cc1ccc(-c2nnc(SCc3ccccn3)o2)cc1", "values": [{"measurement": "IC90", "setting": "[20]", "result": "4 µM (active)"}, {"measurement": "IC90", "setting": "[21]", "result": "62 µM (active)"}, {"measurement": "IC90", "setting": "[22]", "result": "4 µM (active)"}]}
{"smiles": "COC(=O)C1=C(C)N(Cc2ccccc2C(F)(F)F)C(NCc2ccc(OC)cc2)=NC1c1ccc(Cl)cc1", "note": "(stereo unspecified)", "values": [{"measurement": "IC50", "setting": "[23]", "result": "> 96.6 µM (inactive)"}]}
{"smiles": "c1ccc(-c2nc(NC3CC3)c3ccccc3n2)cc1", "values": [{"measurement": "IC50", "setting": "[24]", "result": "48.1 µM (inactive)"}, {"measurement": "IC50", "setting": "[25]", "result": "> 80 µM (inactive)"}]}
{"smiles": "CCN(CCCCOC(=O)c1ccc(OC)c(OC)c1)C(C)Cc1ccc(OC)cc1", "note": "(stereo unspecified) [MEBEVERINE HYDROCHLORIDE]", "values": [{"measurement": "IC50", "setting": "cells", "result": "> 33.3 µM (inactive)"}, {"measurement": "IC50", "setting": "[26]", "result": "> 10 µM (inactive)"}, {"measurement": "IC50", "setting": "[27]", "result": "> 10 µM (inactive)"}, {"measurement": "IC50", "setting": "[28]", "result": "1.95 µM (active)"}]}
